Measurements taken from PMC3089437 (2011).

Target: mouse CB2 (mCB2) (Mus musculus, UniProt P47936)
Assay type: binding

mouse CB2 (mCB2), sequence (P47936 whole entry): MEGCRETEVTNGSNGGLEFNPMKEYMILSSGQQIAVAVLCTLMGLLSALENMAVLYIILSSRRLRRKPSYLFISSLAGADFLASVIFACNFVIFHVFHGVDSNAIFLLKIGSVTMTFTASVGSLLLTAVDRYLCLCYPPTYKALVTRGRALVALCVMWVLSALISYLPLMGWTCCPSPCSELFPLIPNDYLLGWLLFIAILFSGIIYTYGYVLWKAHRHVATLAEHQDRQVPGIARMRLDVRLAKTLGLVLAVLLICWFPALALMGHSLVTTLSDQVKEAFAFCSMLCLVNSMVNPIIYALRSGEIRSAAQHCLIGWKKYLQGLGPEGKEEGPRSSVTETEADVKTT

CCCCCCC(C)(C)c1cc(O)c2c(c1)oc(=O)c1ccc(OC)cc12 [AM1710, 3-(1′,1′-dimethylheptyl)-1-hydroxy-9-methoxy-6H-benzo[c]chromene-6-one]
Ki: 17 nM
